Measurements: US10913744B2, “LRRK2 inhibitors and methods of making and using the same” (Dana-Farber Cancer Institute, Inc., priority 2015, dated 2021)
Read-outs that look alike come from different tables or passages of the source.

Tests used:
[1] = molecular target: CHEK1 (Homo sapiens (Human), UniProt O14757); assay: KinomeScan; assay type: binding; conditions: 1 uM
[2] = molecular target: ERK5 (Homo sapiens (Human), UniProt Q13164); assay: Dundee profiling
[3] = molecular target: IKKe (Homo sapiens (Human), UniProt Q14164); assay: Dundee profiling
[4] = molecular target: CSNK1G1 (Homo sapiens (Human), UniProt Q9HCP0); assay: KinomeScan; assay type: binding; conditions: 1 uM
[5] = molecular target: PIM1 (Homo sapiens (Human), UniProt P11309); assay: Dundee profiling
Sequence of PIM1 (P11309 whole entry, looked up, species assumed): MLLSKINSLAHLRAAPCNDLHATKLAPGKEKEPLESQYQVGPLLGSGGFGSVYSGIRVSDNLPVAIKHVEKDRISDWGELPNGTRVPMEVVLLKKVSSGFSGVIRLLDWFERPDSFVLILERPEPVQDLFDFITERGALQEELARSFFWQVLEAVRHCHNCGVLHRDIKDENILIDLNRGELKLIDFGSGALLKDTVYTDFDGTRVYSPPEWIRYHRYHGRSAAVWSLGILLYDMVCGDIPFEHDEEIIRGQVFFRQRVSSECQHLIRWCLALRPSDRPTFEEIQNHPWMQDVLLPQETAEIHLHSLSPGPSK

[6] = molecular target: EPH-B3 (Homo sapiens (Human), UniProt P54753); assay: Dundee profiling
[7] = molecular target: TGFBR1 (Homo sapiens (Human), UniProt P36897); assay: Dundee profiling
Sequence of TGFBR1 (P36897 34-503, species assumed): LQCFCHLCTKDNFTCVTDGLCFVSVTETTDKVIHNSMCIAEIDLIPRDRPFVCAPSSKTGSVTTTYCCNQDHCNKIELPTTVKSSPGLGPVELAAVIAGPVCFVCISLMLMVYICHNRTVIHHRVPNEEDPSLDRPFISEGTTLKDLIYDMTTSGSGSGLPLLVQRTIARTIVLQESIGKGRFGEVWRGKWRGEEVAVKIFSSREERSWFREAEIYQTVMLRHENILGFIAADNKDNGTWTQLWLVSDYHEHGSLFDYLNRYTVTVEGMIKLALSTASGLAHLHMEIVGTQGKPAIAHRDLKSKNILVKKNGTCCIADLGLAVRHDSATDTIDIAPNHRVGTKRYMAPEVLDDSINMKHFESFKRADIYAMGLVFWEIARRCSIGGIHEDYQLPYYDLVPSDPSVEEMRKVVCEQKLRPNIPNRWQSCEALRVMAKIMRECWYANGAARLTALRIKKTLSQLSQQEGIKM

[8] = molecular target: DCAMKL1 (Homo sapiens (Human), UniProt O15075); assay: KinomeScan; assay type: binding; conditions: 1 uM
[9] = molecular target: PDK1 (Homo sapiens (Human), UniProt O15530); assay: Dundee profiling
Sequence of PDK1 (O15530 whole entry): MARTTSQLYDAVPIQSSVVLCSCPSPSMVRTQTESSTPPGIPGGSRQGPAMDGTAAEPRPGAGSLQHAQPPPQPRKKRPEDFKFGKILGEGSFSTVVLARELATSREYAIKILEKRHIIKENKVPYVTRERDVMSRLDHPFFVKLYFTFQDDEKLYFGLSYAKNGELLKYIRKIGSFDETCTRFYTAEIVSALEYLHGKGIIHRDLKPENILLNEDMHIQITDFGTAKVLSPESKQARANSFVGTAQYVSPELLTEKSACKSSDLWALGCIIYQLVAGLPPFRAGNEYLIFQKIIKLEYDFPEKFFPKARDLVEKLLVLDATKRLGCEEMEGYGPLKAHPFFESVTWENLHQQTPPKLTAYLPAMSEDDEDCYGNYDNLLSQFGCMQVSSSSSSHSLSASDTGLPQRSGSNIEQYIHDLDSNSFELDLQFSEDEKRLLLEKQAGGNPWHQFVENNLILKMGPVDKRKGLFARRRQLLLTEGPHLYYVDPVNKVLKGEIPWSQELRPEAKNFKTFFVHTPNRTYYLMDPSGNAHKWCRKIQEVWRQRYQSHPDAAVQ

[10] = molecular target: MEKK1 (Homo sapiens (Human), UniProt Q13233); assay: Dundee profiling
Sequence of MEKK1 (Q13233 whole entry, species assumed): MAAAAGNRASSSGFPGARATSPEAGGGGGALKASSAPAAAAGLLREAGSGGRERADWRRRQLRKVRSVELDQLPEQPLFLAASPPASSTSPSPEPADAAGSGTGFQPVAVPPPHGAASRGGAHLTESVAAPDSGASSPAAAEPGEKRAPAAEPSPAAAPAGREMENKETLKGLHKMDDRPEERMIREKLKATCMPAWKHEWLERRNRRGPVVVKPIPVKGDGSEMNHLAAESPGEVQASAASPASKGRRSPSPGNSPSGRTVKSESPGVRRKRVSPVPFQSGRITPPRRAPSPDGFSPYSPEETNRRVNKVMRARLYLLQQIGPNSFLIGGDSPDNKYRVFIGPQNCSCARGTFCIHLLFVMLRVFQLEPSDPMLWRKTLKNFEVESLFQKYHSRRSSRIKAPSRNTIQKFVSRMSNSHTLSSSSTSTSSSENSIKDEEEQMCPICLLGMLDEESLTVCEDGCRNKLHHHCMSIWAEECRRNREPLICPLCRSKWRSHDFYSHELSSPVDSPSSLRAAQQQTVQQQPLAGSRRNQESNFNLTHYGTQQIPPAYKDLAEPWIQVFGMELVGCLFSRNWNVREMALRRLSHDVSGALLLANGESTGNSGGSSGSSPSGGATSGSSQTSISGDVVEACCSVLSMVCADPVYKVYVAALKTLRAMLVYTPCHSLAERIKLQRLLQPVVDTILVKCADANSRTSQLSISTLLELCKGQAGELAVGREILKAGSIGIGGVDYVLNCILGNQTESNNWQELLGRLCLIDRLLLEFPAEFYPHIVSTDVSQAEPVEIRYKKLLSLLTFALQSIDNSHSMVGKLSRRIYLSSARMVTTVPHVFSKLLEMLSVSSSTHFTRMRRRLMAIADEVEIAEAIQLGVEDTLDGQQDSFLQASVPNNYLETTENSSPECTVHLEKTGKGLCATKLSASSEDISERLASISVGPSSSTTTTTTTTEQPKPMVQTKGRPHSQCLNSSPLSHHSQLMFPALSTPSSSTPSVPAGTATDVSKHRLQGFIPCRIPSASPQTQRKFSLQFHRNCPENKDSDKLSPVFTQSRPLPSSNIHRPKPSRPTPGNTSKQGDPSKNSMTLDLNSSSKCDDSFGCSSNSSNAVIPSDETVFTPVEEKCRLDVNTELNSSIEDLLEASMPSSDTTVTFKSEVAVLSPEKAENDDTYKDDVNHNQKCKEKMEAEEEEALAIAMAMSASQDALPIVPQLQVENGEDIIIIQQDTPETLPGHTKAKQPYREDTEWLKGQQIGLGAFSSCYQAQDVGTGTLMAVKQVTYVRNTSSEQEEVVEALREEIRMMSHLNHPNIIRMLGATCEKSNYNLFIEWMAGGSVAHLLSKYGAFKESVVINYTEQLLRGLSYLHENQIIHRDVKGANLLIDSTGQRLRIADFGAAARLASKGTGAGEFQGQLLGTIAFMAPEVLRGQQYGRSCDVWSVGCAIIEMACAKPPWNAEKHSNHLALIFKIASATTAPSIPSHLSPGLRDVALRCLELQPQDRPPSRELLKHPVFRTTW

[11] = molecular target: ABL (Homo sapiens (Human), UniProt P00519); assay: Dundee profiling
[12] = molecular target: PKA (Homo sapiens (Human), UniProt P17612); assay: Dundee profiling
[13] = molecular target: RSK4 (Kin.Dom.2-C-terminal) (Homo sapiens (Human), UniProt Q9UK32); assay: KinomeScan; assay type: binding; conditions: 1 uM
[14] = molecular target: MELK (Homo sapiens (Human), UniProt Q14680); assay: Dundee profiling
[15] = molecular target: TrkA (Homo sapiens (Human), UniProt P04629); assay: Dundee profiling
[16] = molecular target: FGF-R1 (Homo sapiens (Human), UniProt P11362); assay: Dundee profiling
[17] = molecular target: CDK11 (Homo sapiens (Human), UniProt Q9BWU1); assay: KinomeScan; assay type: binding; conditions: 1 uM
[18] = molecular target: EGFR (E746-A750del) (Homo sapiens (Human), UniProt P00533, DEL746-750); assay: KinomeScan; assay type: binding; conditions: 1 uM
[19] = molecular target: JAK2 (Homo sapiens (Human), UniProt O60674); assay: Dundee profiling
[20] = molecular target: QSK (Homo sapiens (Human), UniProt Q9Y2K2); assay: KinomeScan; assay type: binding; conditions: 1 uM
[21] = molecular target: HIPK2 (Homo sapiens (Human), UniProt Q9H2X6); assay: Dundee profiling
[22] = molecular target: IKKb (Homo sapiens (Human), UniProt O14920); assay: Dundee profiling
[23] = molecular target: MET (Y1235D) (Homo sapiens (Human), UniProt P08581, Y1235D); assay: KinomeScan; assay type: binding; conditions: 1 uM
[24] = molecular target: GSK3b (Homo sapiens (Human), UniProt P49841); assay: Dundee profiling
Sequence of GSK3b (P49841 whole entry, looked up, species assumed): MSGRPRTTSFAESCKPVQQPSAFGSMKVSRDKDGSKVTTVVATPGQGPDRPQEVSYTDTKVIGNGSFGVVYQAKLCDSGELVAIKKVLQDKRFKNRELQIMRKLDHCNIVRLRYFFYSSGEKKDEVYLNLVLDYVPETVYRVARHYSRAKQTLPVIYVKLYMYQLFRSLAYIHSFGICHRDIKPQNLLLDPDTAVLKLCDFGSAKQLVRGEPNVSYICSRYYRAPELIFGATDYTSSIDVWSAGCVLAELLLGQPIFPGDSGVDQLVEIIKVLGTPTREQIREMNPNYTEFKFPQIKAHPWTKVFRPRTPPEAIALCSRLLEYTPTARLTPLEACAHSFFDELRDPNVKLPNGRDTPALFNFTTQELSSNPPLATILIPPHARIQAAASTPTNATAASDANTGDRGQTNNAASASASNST

[25] = molecular target: ITK (Homo sapiens (Human), UniProt Q08881); assay: KinomeScan; assay type: binding; conditions: 1 uM
[26] = molecular target: PKBb (Homo sapiens (Human), UniProt P31751); assay: Dundee profiling
[27] = molecular target: WNK1 (Homo sapiens (Human), UniProt Q9H4A3); assay: KinomeScan; assay type: binding; conditions: 1 uM
[28] = molecular target: PLK1 (Homo sapiens (Human), UniProt P53350); assay: Dundee profiling
Sequence of PLK1 (P53350 whole entry, looked up, species assumed): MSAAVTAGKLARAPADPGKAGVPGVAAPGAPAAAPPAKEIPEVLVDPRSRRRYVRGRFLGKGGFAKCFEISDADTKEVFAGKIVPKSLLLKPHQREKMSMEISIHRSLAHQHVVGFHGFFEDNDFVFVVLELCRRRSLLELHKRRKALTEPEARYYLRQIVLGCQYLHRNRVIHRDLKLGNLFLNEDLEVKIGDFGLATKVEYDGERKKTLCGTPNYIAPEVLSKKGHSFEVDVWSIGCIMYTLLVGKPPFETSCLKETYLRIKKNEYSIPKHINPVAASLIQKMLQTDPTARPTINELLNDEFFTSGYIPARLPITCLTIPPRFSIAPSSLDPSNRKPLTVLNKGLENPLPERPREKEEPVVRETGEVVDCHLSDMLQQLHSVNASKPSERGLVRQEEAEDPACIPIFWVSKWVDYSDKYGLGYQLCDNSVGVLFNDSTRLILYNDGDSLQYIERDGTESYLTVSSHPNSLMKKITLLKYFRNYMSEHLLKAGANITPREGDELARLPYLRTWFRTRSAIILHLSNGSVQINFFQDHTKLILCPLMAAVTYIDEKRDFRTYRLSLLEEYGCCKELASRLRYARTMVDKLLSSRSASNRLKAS

[29] = molecular target: MPSK1 (Homo sapiens (Human), UniProt O75716); assay: Dundee profiling
Sequence of MPSK1 (O75716 whole entry, species assumed): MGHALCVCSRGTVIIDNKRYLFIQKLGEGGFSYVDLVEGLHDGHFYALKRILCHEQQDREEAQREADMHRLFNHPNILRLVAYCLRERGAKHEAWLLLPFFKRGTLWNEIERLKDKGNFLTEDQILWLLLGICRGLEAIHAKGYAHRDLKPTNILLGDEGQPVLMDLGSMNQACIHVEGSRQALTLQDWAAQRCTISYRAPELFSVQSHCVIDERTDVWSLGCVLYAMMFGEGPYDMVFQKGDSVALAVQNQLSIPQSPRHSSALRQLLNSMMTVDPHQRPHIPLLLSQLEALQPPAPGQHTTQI

[30] = molecular target: p38b MAPK (Homo sapiens (Human), UniProt Q15759); assay: Dundee profiling
[31] = molecular target: BRSK1 (Homo sapiens (Human), UniProt Q8TDC3); assay: Dundee profiling
Sequence of BRSK1 (Q8TDC3 whole entry, looked up, species assumed): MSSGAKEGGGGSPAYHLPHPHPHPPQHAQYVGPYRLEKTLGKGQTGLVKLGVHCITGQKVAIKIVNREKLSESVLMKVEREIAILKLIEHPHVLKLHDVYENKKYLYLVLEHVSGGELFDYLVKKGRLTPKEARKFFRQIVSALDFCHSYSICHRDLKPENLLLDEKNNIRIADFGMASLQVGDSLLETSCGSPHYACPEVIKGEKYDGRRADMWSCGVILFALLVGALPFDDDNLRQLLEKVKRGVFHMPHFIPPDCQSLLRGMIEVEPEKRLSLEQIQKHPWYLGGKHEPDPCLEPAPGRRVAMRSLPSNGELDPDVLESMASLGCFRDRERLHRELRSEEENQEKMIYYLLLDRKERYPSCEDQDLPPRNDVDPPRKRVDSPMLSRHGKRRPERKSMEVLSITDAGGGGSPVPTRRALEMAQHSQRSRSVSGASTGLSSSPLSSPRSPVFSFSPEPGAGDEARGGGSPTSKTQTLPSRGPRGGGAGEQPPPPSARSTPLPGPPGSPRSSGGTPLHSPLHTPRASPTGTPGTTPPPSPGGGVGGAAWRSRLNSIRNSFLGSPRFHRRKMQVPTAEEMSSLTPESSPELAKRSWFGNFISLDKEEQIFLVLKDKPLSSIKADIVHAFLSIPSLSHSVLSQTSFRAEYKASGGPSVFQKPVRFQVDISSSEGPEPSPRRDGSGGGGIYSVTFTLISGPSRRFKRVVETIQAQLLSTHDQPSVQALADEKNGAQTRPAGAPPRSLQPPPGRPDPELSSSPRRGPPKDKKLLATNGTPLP

[32] = molecular target: SIK (Homo sapiens (Human), UniProt P57059); assay: KinomeScan; assay type: binding; conditions: 1 uM
[33] = molecular target: CSNK1G3 (Homo sapiens (Human), UniProt Q9Y6M4); assay: KinomeScan; assay type: binding; conditions: 1 uM
[34] = molecular target: CIT (Homo sapiens (Human), UniProt O14578); assay: KinomeScan; assay type: binding; conditions: 1 uM
[35] = molecular target: MST2 (Homo sapiens (Human), UniProt Q13188); assay: Dundee profiling
[36] = read-out: percent remaining enzymatic activity, I1, 1 μM
[37] = read-out: percent remaining enzymatic activity, I10
[38] = read-out: percent remaining enzymatic activity

SMILES: CNc1nc(Nc2ccc(C(=O)N3CCOCC3)cc2OC)nc2[nH]cc(Cl)c12 [Compound 18, (4-((5-chloro-4-(methylamino)-7H-pyrrolo[2,3-d]pyrimidin-2-yl)amino)-3-methoxyphenyl)(morpholino)methanone]
- KinomeScan value [1]: 100
- remaining activity at 1 µM [2, 36]: 76%
- remaining activity at 1 µM [2, 37]: 52%
- remaining activity at 1 µM [3, 36]: 114%
- remaining activity at 1 µM [3, 37]: 98%
- KinomeScan value [4]: 97
- remaining activity at 1 µM [5, 36]: 95%
- remaining activity at 1 µM [5, 37]: 88%
- percent remaining enzymatic activity ([6]; I1, 1 μM): 92%
- remaining activity at 1 µM [6, 38]: 92%
- remaining activity at 1 µM [7, 36]: 128%
- remaining activity at 1 µM [7, 37]: 119%
- KinomeScan value [8]: 74
- remaining activity at 1 µM [9, 36]: 91%
- remaining activity at 1 µM [9, 37]: 88%
- remaining activity at 1 µM [10, 36]: 94%
- remaining activity at 1 µM [10, 37]: 85%
- remaining activity at 1 µM [11, 36]: 106%
- remaining activity at 1 µM [11, 37]: 103%
- remaining activity at 1 µM [12, 36]: 99%
- remaining activity at 1 µM [12, 37]: 101%
- KinomeScan value [13]: 90
- remaining activity at 1 µM [14, 36]: 118%
- remaining activity at 1 µM [14, 37]: 79%
- remaining activity at 1 µM [15, 36]: 85%
- remaining activity at 1 µM [15, 37]: 84%
- remaining activity at 1 µM [16, 36]: 94%
- remaining activity at 1 µM [16, 37]: 102%
- KinomeScan value [17]: 63
- KinomeScan value [18]: 100
- percent remaining enzymatic activity ([19]; I10): 97%
- remaining activity at 1 µM [19, 38]: 99%
- KinomeScan value [20]: 86
- remaining activity at 1 µM [21, 36]: 84%
- remaining activity at 1 µM [21, 37]: 43%
- remaining activity at 1 µM [22, 36]: 100%
- remaining activity at 1 µM [22, 37]: 95%
- KinomeScan value [23]: 100
- remaining activity at 1 µM [24, 36]: 82%
- remaining activity at 1 µM [24, 37]: 97%
- KinomeScan value [25]: 88
- remaining activity at 1 µM [26, 36]: 118%
- remaining activity at 1 µM [26, 37]: 103%
- KinomeScan value [27]: 95
- remaining activity at 1 µM [28, 36]: 62%
- remaining activity at 1 µM [28, 37]: 13%
- remaining activity at 1 µM [29, 36]: 113%
- remaining activity at 1 µM [29, 37]: 106%
- remaining activity at 1 µM [30, 36]: 108%
- remaining activity at 1 µM [30, 37]: 79%
- remaining activity at 1 µM [31, 36]: 94%
- remaining activity at 1 µM [31, 37]: 98%
- KinomeScan value [32]: 94
- KinomeScan value [33]: 100
- KinomeScan value [34]: 92
- remaining activity at 1 µM [35, 36]: 90%
- remaining activity at 1 µM [35, 37]: 82%
